Test results: PubChem BioAssay (NCI)
Where “and” joins values, the source holds several entries; their conditions need not be identical. Equal values may be shown once.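 In this assay, cells in 96-well plates receive the compound at five concentrations for 48 hours. Endpoints are linearly interpolated between the surrounding concentrations. GI50: concentration for 50% inhibition of growth. TGI denotes the concentration required for complete inhibition of growth.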

Legend:
Assay in all cases: DTP human tumour cell line panel, 48 h
OVCAR-8 ovarian = system: OVCAR-8 ovarian
HT29 colon = system: HT29 colon
HCT-116 colon = system: HCT-116 colon
LOX IMVI melanoma = system: LOX IMVI melanoma
A549 NSCLC = system: A549 NSCLC
NCI/ADR-RES ovarian = system: NCI/ADR-RES ovarian
UO-31 renal = system: UO-31 renal
MOLT-4 leukemia = system: MOLT-4 leukemia
UACC-62 melanoma = system: UACC-62 melanoma
RXF 393 renal = system: RXF 393 renal

## c1ccc2c(CN3CCC(C4CCN(Cc5cccc6ccccc56)CC4)CC3)cccc2c1
OVCAR-8 ovarian
  GI50: 21.8 µM and 6.98 µM
  TGI: > 72.4 µM
HT29 colon
  TGI: 11.7 µM and 11.2 µM
HCT-116 colon
  GI50: 7.28 µM and 16.3 µM
  TGI: 21.1 µM and > 58.2 µM
LOX IMVI melanoma
  GI50: 4.33 µM and 10.2 µM
  TGI: 16.8 µM and 23.4 µM
A549 NSCLC
  TGI: > 100 µM
NCI/ADR-RES ovarian
  TGI: > 100 µM
UO-31 renal
  GI50: 3.84 µM and 29.4 µM
  TGI: 16.2 µM and > 100 µM
MOLT-4 leukemia
  TGI: 26.6 µM and 99.1 µM
UACC-62 melanoma
  TGI: 17.5 µM and 20.9 µM
RXF 393 renal
  TGI: 26.9 µM and 43.3 µM

## COc1cc(NC(=O)c2cc(O)c(C/C=C(\C)CCC=C(C)C)c(O)c2)cc2c1O[C@]1(C)CC[C@@H](O)C(C)(C)[C@H]1C2
OVCAR-8 ovarian
  GI50: 2.58 µM
  TGI: 14.7 µM
HT29 colon
  GI50: 1.62 µM
  TGI: 5.79 µM
HCT-116 colon
  GI50: 2.07 µM
  TGI: 12.3 µM
LOX IMVI melanoma
  GI50: 1.35 µM
  TGI: 2.89 µM
A549 NSCLC
  GI50: 1.98 µM
  TGI: 6.66 µM
NCI/ADR-RES ovarian
  GI50: 7.89 µM
  TGI: 44.5 µM
UO-31 renal
  GI50: 2.7 µM
  TGI: 9.71 µM
MOLT-4 leukemia
  GI50: 0.409 µM
  TGI: 5.83 µM
UACC-62 melanoma
  GI50: 1.42 µM
  TGI: 3.37 µM
RXF 393 renal
  GI50: 0.209 µM
  TGI: 0.747 µM

## COc1ccc2c(c1OC)C(=O)O[C@@H]2[C@H]1c2c(c(Br)c3c(c2OC)OCO3)CCN1C
OVCAR-8 ovarian
  GI50: 32.4 µM
  TGI: > 100 µM
HT29 colon
  GI50: 47 µM
  TGI: > 100 µM
HCT-116 colon
  GI50: 4.69 µM
  TGI: > 100 µM
LOX IMVI melanoma
  GI50: 6 µM
  TGI: > 100 µM
A549 NSCLC
  GI50: 8.57 µM
  TGI: > 100 µM
NCI/ADR-RES ovarian
  GI50: 9.22 µM
  TGI: > 100 µM
UO-31 renal
  GI50: > 100 µM
  TGI: > 100 µM
MOLT-4 leukemia
  GI50: 4.09 µM
  TGI: > 100 µM
UACC-62 melanoma
  GI50: 4.31 µM
  TGI: > 100 µM
RXF 393 renal
  GI50: 20.3 µM
  TGI: > 100 µM

## Cn1ncnc1C1c2n[nH]c(=O)c3cc(F)cc(c23)NC1c1ccc(F)cc1 (centres undefined)
OVCAR-8 ovarian
  GI50: > 100 µM
  TGI: > 100 µM
HT29 colon
  GI50: > 100 µM
  TGI: > 100 µM
HCT-116 colon
  GI50: 25.8 µM
  TGI: > 100 µM
LOX IMVI melanoma
  GI50: 6.63 µM
  TGI: > 100 µM
A549 NSCLC
  GI50: 7.9 µM
  TGI: > 100 µM
NCI/ADR-RES ovarian
  GI50: > 100 µM
  TGI: > 100 µM
UO-31 renal
  GI50: 11.9 µM
  TGI: > 100 µM
MOLT-4 leukemia
  GI50: 3.25 µM
  TGI: > 100 µM
UACC-62 melanoma
  GI50: > 100 µM
  TGI: > 100 µM
RXF 393 renal
  GI50: 22.2 µM
  TGI: > 100 µM

## O=[N+]([O-])c1cc2c(ccc3occc32)o1
OVCAR-8 ovarian
  GI50: 2.45 µM
  TGI: 21 µM
HT29 colon
  GI50: 2.45 µM
  TGI: 18.8 µM
HCT-116 colon
  GI50: 1.34 µM
  TGI: 5.73 µM
LOX IMVI melanoma
  GI50: 1.25 µM
  TGI: 3.85 µM
A549 NSCLC
  GI50: 3.21 µM
  TGI: 12.4 µM
NCI/ADR-RES ovarian
  GI50: 3.28 µM
  TGI: 30.9 µM
UO-31 renal
  GI50: 1.99 µM
  TGI: 7.65 µM
MOLT-4 leukemia
  GI50: 2.31 µM
  TGI: 28.6 µM
UACC-62 melanoma
  GI50: 1.45 µM
  TGI: 3.41 µM
RXF 393 renal
  GI50: 1.49 µM
  TGI: 3.17 µM

## Cc1ccc(-c2c3c(N)c4c(nc3nc3c2c(C)nn3-c2ccccc2)CCC4)cc1
OVCAR-8 ovarian
  GI50: 2.32 µM
  TGI: 5.89 µM
HT29 colon
  GI50: 5.07 µM
  TGI: 10.9 µM
HCT-116 colon
  GI50: 1.57 µM
  TGI: 3.41 µM
LOX IMVI melanoma
  GI50: 1.98 µM
  TGI: 3.99 µM
A549 NSCLC
  GI50: 2.5 µM
  TGI: 7.49 µM
NCI/ADR-RES ovarian
  GI50: 8.23 µM
  TGI: 32.3 µM
UO-31 renal
  GI50: 1.87 µM
  TGI: 3.94 µM
MOLT-4 leukemia
  GI50: 2.81 µM
  TGI: 7.94 µM
UACC-62 melanoma
  GI50: 18.6 µM
  TGI: 35.7 µM
RXF 393 renal
  GI50: 1.58 µM
  TGI: 3.25 µM

## Clc1ccc(/C=C/c2nc(Cl)c(-c3ccc(Cl)cc3)c(Cl)n2)cc1
OVCAR-8 ovarian
  TGI: > 100 µM
HT29 colon
  TGI: > 100 µM
HCT-116 colon
  TGI: > 100 µM
LOX IMVI melanoma
  TGI: > 100 µM
A549 NSCLC
  TGI: > 100 µM
NCI/ADR-RES ovarian
  TGI: > 100 µM
UO-31 renal
  TGI: 43.2 µM
MOLT-4 leukemia
  TGI: > 100 µM
UACC-62 melanoma
  TGI: > 100 µM
RXF 393 renal
  TGI: > 100 µM

## CN(C)N=Nc1nn(C(=O)Nc2ccc(Cc3ccccc3)cc2)c2ccccc12
OVCAR-8 ovarian
  GI50: 4.1 µM
  TGI: > 100 µM
HT29 colon
  GI50: 3.34 µM
  TGI: > 100 µM
HCT-116 colon
  GI50: > 100 µM
  TGI: > 100 µM
LOX IMVI melanoma
  GI50: 0.0625 µM
  TGI: > 73.3 µM
A549 NSCLC
  GI50: 3.9 µM
  TGI: > 100 µM
NCI/ADR-RES ovarian
  GI50: 0.957 µM
  TGI: > 100 µM
UO-31 renal
  GI50: 3.23 µM
  TGI: > 79 µM
MOLT-4 leukemia
  GI50: 7.47 µM
  TGI: > 100 µM
UACC-62 melanoma
  GI50: 0.0385 µM
  TGI: 1.65 µM
RXF 393 renal
  GI50: > 28.9 µM
  TGI: > 100 µM

## COc1ccc(OC)c(/C=N/N=C2\C(=O)Nc3c(Cl)cc(Cl)cc32)c1
OVCAR-8 ovarian
  TGI: > 100 µM
HT29 colon
  TGI: > 100 µM
HCT-116 colon
  TGI: > 100 µM
LOX IMVI melanoma
  TGI: > 100 µM
A549 NSCLC
  TGI: > 100 µM
NCI/ADR-RES ovarian
  TGI: > 100 µM
UO-31 renal
  TGI: > 100 µM
MOLT-4 leukemia
  TGI: > 100 µM
UACC-62 melanoma
  TGI: > 100 µM
RXF 393 renal
  TGI: > 100 µM

## Nc1nc(Cl)nc2c1ncn2[C@@H]1O[C@H](COS(N)(=O)=O)[C@@H](O)[C@H]1O
OVCAR-8 ovarian
  GI50: 0.0178 µM and 0.0171 µM
  TGI: 0.0562 µM and 0.0453 µM
HT29 colon
  GI50: 0.0254 µM and 0.03 µM
  TGI: 0.0678 µM and 0.0949 µM
HCT-116 colon
  GI50: 0.0183 µM and 0.0251 µM
  TGI: 0.104 µM and 0.0767 µM
LOX IMVI melanoma
  GI50: 0.0181 µM and 0.0231 µM
  TGI: 0.0356 µM and 0.0552 µM
A549 NSCLC
  GI50: 0.0259 µM and 0.0263 µM
  TGI: 0.0829 µM and 0.0823 µM
NCI/ADR-RES ovarian
  GI50: 0.0121 µM and 0.0196 µM
  TGI: 0.054 µM and 0.145 µM
UO-31 renal
  GI50: 0.0193 µM
  TGI: 0.0475 µM
MOLT-4 leukemia
  GI50: 0.0109 µM
  TGI: 0.391 µM and 0.0457 µM
UACC-62 melanoma
  GI50: 0.019 µM and 0.0217 µM
  TGI: 0.044 µM and 0.0561 µM
RXF 393 renal
  GI50: 0.019 µM and 0.0229 µM
  TGI: 0.0475 µM and 0.0496 µM

## COc1cc2c(cc1OCCCCCn1c3ccccc3c3ccccc31)N=C[C@@H]1CCCN1C2=O
OVCAR-8 ovarian
  GI50: 2.56 µM
  TGI: 7.17 µM
HT29 colon
  GI50: 2.08 µM
  TGI: 5.29 µM
HCT-116 colon
  GI50: 1.65 µM
  TGI: 3.33 µM
LOX IMVI melanoma
  GI50: 2.01 µM
  TGI: 4.88 µM
A549 NSCLC
  GI50: 1.57 µM
  TGI: 3.02 µM
NCI/ADR-RES ovarian
  GI50: 2.14 µM
  TGI: 4.75 µM
UO-31 renal
  GI50: 1.52 µM
  TGI: 2.93 µM
MOLT-4 leukemia
  GI50: 2.15 µM
  TGI: 6.11 µM
UACC-62 melanoma
  GI50: 1.86 µM
  TGI: 3.8 µM
RXF 393 renal
  GI50: 4.34 µM
  TGI: 16.4 µM

## NS(=O)(=O)c1ccc(N2N=C(c3cccs3)CC2c2ccccc2O)cc1 (centres undefined)
OVCAR-8 ovarian
  GI50: 0.907 µM
  TGI: 2.78 µM
HT29 colon
  GI50: 0.897 µM
  TGI: 2.39 µM
HCT-116 colon
  GI50: 1.15 µM
  TGI: 3.96 µM
LOX IMVI melanoma
  GI50: 1.25 µM
  TGI: 5.22 µM
A549 NSCLC
  GI50: 1.16 µM
  TGI: 7.06 µM
NCI/ADR-RES ovarian
  GI50: 4.84 µM
  TGI: 19 µM
UO-31 renal
  GI50: 4.01 µM
  TGI: 12.1 µM
MOLT-4 leukemia
  GI50: 1.27 µM
  TGI: 16.9 µM
UACC-62 melanoma
  GI50: 1.15 µM
  TGI: 5.09 µM
RXF 393 renal
  GI50: 0.733 µM
  TGI: 2.2 µM

## Nc1cc(-c2ccccc2)n(C(=O)Nc2ccc(Oc3ccccc3)cc2)n1
OVCAR-8 ovarian
  GI50: 20.1 µM
  TGI: 57.1 µM
HT29 colon
  GI50: 19.1 µM
  TGI: > 100 µM
HCT-116 colon
  GI50: 53.5 µM
  TGI: > 100 µM
LOX IMVI melanoma
  GI50: > 100 µM
  TGI: > 100 µM
A549 NSCLC
  GI50: 27.8 µM
  TGI: > 100 µM
NCI/ADR-RES ovarian
  GI50: 75.4 µM
  TGI: > 100 µM
UO-31 renal
  GI50: 52.5 µM
  TGI: > 100 µM
MOLT-4 leukemia
  GI50: 50.5 µM
  TGI: > 100 µM
UACC-62 melanoma
  GI50: > 100 µM
  TGI: > 100 µM
RXF 393 renal
  GI50: 23 µM
  TGI: 68.3 µM
